Laboratory results as given in patent US20250179022A1, “COMPOUND USED AS TYK2 INHIBITOR, PREPARATION METHOD THEREFOR, AND PHARMACEUTICAL USE THEREOF” (SHANGHAI ZHIGEN PHARMACEUTICAL & TECHNOLOGY CO. LTD., priority 2022, published 2025).
Values after ≈ are worked out from the molar mass of the structure shown.

What was measured:
JAK2 = target: T1, JAK2 (Homo sapiens, UniProt O60674, cells depend on it, form not given); test: JAK family kinase selectivity assay, Ba/F3-TEL-JAK2 cell proliferation; assay type: cell-based; conditions: Ba/F3-TEL-JAK2, 72 h; read-out: Ba/F3 Cell IC50 JAK2
T1 construct: fused on or other part: N-terminal part of TEL (ETV6) as oligomerising partner; it is the second protein of the fusion and part of the key; P41212 (Transcription factor ETV6)
T1 sequence (O60674 849-1132 limits assumed, change not shown): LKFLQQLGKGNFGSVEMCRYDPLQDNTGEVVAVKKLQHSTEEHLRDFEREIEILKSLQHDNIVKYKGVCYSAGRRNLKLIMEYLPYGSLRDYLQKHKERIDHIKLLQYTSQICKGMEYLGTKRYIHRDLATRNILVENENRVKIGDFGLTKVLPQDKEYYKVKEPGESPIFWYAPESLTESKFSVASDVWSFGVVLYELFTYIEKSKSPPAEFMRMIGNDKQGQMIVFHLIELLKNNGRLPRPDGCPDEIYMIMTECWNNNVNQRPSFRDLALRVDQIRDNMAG
Description: (§1) There are four kinases in the JAK family, respectively TYK2, JAK1, JAK2 and JAK3. JAK family kinase genes were introduced into the wild-type murine B lymphocytes (BaF3), and four BaF3 engineered cell lines were constructed respectively (Ba/F3-FL-TYK2-E957D, Ba/F3-TEL-JAK1, Ba/F3-TEL-JAK2, Ba/F3-TEL-JAK3). The growth and proliferation of these engineered cell lines were not dependent on IL-3, but on exogenously transferred JAK family kinases.
(§2) In this experiment, the inhibitory effects of the compounds on the proliferation of four cell types, Ba/F3-FL-TYK2-E957D, Ba/F3-TEL-JAK1, Ba/F3-TEL-JAK2, and Ba/F3-TEL-JAK3 were tested, and apoptosis was detected, and the IC50 values were calculated. The inhibitory activities of the compounds against TYK2, JAK1, JAK2, and JAK3 kinases were evaluated based on the IC50 value, thus assessing the JAK family kinase selectivity of the compounds.
(§3) The tested compounds, powder and stored at room temperature, were prepared into 10 mM stock solution with DMSO and stored at −20° C. away from light for use.
(§4) Compounds were formulated into dilute solutions which was 1000 times of the final concentration. The compound was prepared into 20-times of final concentration by diluting the compound with culture medium. 2 ul of 1000-times compound was added per well to 98 ul of culture medium.
(§5) Cells (provided by Sundia Pharmaceutical Technology (Shanghai) Co., Ltd.) were resuspended and counted using an automated cell counter. The cell suspension was diluted to the desired density based on BaF3 seeding density of 2000 cells per well. Each well was plated with 95 ul of cells and incubated at 37° C. for stable equilibrium. […]
(§6) The cell plate was equilibrated to room temperature. […] Detected with SpectraMax Paradigm.
(§7) • (1) IC50 was calculated using GraphPad Prism 5. • (2) % Inh=(Max signal-Compound signal)/(Max signal-Min signal)×100. • (3) Max signal was the positive control well with only the same volume of DMSO as the compound. • (4) Min signal was the negative control well with only the culture medium.

[1] = In vivo pharmacokinetic experiments in Beagle dogs (oral); conditions: 2 mg/kg
Protocol: Experimental Methods: Healthy male Beagle dogs were randomly grouped into 3 […] in each group, and were given the test compounds orally. Before the gavage experiment, the dogs were fasted for 12 h, drank water freely, and were uniformly fed for 4 h after the administration of the drug. 0.083, 0.25, 0.5, 1.0, 2.0, 4.0, 6.0, 8.0, 10 and 24 h after administration; about 600 μL of blood was collected from the forelimb or hindlimb at the above set time points and placed in EDTA-K2 tubes, and the whole blood was collected and stored temporarily in an ice-water bath, and then centrifuged at least 3500 rpm for 10 min within 30 min, and the plasma was separated and frozen in a −70° C. refrigerator for testing.

[2] = tested on: IFN-α-induced STAT phosphorylation; test: IFN-α-induced STAT phosphorylation in human whole blood; assay type: cell-based; conditions: for higher anti-inflammatory activity compared to the control BMS-986165: IFN-α-induced STAT phosphorylation in human whole blood, relative to BMS-986165; for IC50: human whole blood, 20 ng/ml IFN-α, pSTAT5 in CD3-positive cells, read-out: IC50, IFN-α inflammatory pathway (IFN-α-induced STAT phosphorylation)
Description: The cytokine receptor attached to TYK2 mediates the signaling of type 1 interferon (IFN-α), which has been identified as the most important inflammatory factor of the autoimmune system. Human whole blood is induced with IFN-α, and TYK2 from lymphocytes in whole blood triggered STAT phosphorylation, which mediated subsequent inflammatory signaling. Therefore, TYK2 inhibitors have an inhibitory effect on IFN-α signaling, and the stronger the TYK2 inhibitory activity, the lower the level of STAT phosphorylation, and the stronger the corresponding anti-inflammatory effect.
In this experiment, the ability of the compounds to inhibit IFN-α-induced STAT phosphorylation in human whole blood were tested, and the IC50 values were calculated. The anti-inflammatory activity of the compounds was evaluated at the tissue level and evaluation of the inhibitory activity of compounds on the IFN-α inflammatory pathway based on the IC50 value.
The tested compound, powder and stored at room temperature, prepared into 10 mM stock solution with DMSO and stored at −80° C. in the refrigerator.
1× Fix/Lysis solution preparation: 5× Fix/Lysis and ddH2O were diluted according to 1:4 and preheated in 37° C. incubator, waiting for use.
Flow cytometric staining buffer preparation: 1 g of bovine serum albumin (BSA) and 1 mL of EDTA (0.5 M) solution were added to 500 mL of phosphate buffer solution (PBS) and stored at 4° C. in the refrigerator.
Compound dilution solution: 0.5 g of bovine serum albumin (BSA) was added to 500 mL of phosphate buffer solution (PBS), and stored at 4° C. in the refrigerator.
50 μg/mL IFN-alpha was diluted to 400 ng/mL with Compound Diluent and set aside.
67.5 μL of human whole blood was added to a 96-well plate using a 300 μL electric volley gun. 3.5 μL of prepared test compound was added, mixed well and placed in the cell culture incubator. After 60 min incubation, 400 ng/mL IFN-α (Biolegend 592702, final concentration 20 ng/ml) was added. The obtained was mixed well and placed in the cell culture incubator to continue incubation for 15 min.
After cytokine stimulation, 5 ul of PE-CD3 (BD 555333) antibody was added to each well, mixed and incubation was continued at 4° C. in the refrigerator. At the end, whole blood was transferred to a 96-well deep-well plate using a volley gun, pre-warmed 1× Fix/Lysis solution was added, and cells were lysed and fixed for 12 minutes at 37° C. in an incubator. After being washed, 400 μL of Perm III solution was added, vortexed and incubated on ice for 30 minutes. Cells were then stained by 100 μL of APC-pSTAT5 (1:100) antibody for 50 min at room temperature. This was followed by flow-through instrumentation. The expression of pSTAT5 was quantified by median fluorescence intensity after gating the CD3-positive signaling cluster.

[3] = Solubility in water (at pH=7); assay type: physicochemical
Description: Test Example 6: Solubility of the Compounds of the Invention in Water (at pH=7)

JAK3 = target: T2, JAK3 (Homo sapiens, UniProt P52333, cells depend on it, form not given); test: JAK family kinase selectivity assay, Ba/F3-TEL-JAK3 cell proliferation; assay type: cell-based; conditions: Ba/F3-TEL-JAK3, 72 h; read-out: Ba/F3 Cell IC50 JAK3
T2 construct: fused on or other part: N-terminal part of TEL (ETV6) as oligomerising partner; P41212 (Transcription factor ETV6)
T2 sequence (P52333 822-1111 limits assumed, change not shown): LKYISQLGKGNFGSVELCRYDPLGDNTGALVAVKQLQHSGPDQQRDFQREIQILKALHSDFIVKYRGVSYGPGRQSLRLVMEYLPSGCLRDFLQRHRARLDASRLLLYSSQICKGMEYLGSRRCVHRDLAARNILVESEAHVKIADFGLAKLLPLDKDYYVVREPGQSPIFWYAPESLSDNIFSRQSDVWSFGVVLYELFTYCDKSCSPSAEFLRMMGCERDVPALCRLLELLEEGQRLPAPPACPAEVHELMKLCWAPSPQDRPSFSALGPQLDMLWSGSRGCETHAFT
Description: as §1, §2, §3, §4, §5, §6, §7

Structure (SMILES) | GI50 (JAK2) [nM] | AUC [1] [ngh/mL] | F [1] [%] | Cmax ([1]; male, dog, plasma) [ng/mL] | MRT ([1]; male, dog, plasma) [h] | half-life ([1]; male, dog, plasma) [h] | higher anti-inflammatory activity compared to the control BMS-986165 [2] | IC50 [2] [nM] | Solubility [3] [µg/mL] | GI50 (JAK3) [nM]
[2H]C([2H])([2H])NC(=O)c1nnc(NC(=O)C2CC2)cc1Nc1nc(N)c(Cl)cc1[S@@](C)(=O)=NC [Example 28] | > 1000 | 6684 | 117 | 485 | 10.7 | 7.26 | about 6 fold | 4 | 22 (≈ 48.3 µM) | > 1000
[2H]C([2H])([2H])NC(=O)c1nnc(NC(=O)C2CC2)cc1Nc1nc(N)c(Cl)cc1[S@](C)(=N)=O [Example 29, (R)-4-((6-amino-5-chloro-3-(S-methylsulfoximino)pyridin-2-yl)amino)-6-(cyclopropylcarboxamido)-N-(methyl-d3)pyridazine-3-carboxamide] | > 1000 | – | – | – | – | – | about 6 fold | 3.7 | – | > 1000
